Values joined by “and” are separate entries in the source; they are usually repeats but may differ in a detail not shown here. Equal values may be shown once.
What was measured:
[1] = molar enthalpy of vaporization or sublimation; details: Crystal, Static calorimetry
[2] = Crystal, Calculated from knudsen effusion weight loss

O=C1CCCCCN1 [1-aza-2-cycloheptanone]
Details	molar enthalpy [kcal/mol]	vapor or sublimation pressure
[1], 350.03 K	20.9	–
[2], 293.7 K	–	0.0001506 kPa and 0.0001518 kPa and 0.0001508 kPa
[2], 295.7 K	–	0.0001889 kPa and 0.000183 kPa and 0.000182 kPa
[2], 296.6 K	–	0.0002196 kPa and 0.0002191 kPa and 0.0002211 kPa
[2], 298.19 K	–	0.0002627 kPa and 0.0002587 kPa and 0.0002716 kPa
[2], 299.67 K	–	0.0003254 kPa and 0.0003117 kPa and 0.0003173 kPa
[2], 301.1 K	–	0.0003753 kPa and 0.0003757 kPa and 0.0003791 kPa
[2], 302.69 K	–	0.0004428 kPa and 0.0004363 kPa and 0.0004403 kPa
[2], 304.15 K	–	0.0005432 kPa and 0.0005228 kPa and 0.0005341 kPa
[2], 305.59 K	–	0.0006305 kPa and 0.0006272 kPa and 0.0006374 kPa
[2], 307.18 K	–	0.0007318 kPa and 0.0007265 kPa and 0.0007404 kPa
[2], 308.66 K	–	0.0008828 kPa and 0.0009064 kPa and 0.0008695 kPa
[2], 310.1 K	–	0.001048 kPa and 0.001045 kPa and 0.001038 kPa

S=C1CCCCCN1 [azepane-2-thione]
Details	molar enthalpy [kcal/mol]	vapor or sublimation pressure
[1], 386.11 K	23.5	–
[2], 318.18 K	–	9.46e-05 kPa and 9.18e-05 kPa and 9.11e-05 kPa
[2], 320.16 K	–	0.0001201 kPa and 0.0001211 kPa and 0.0001173 kPa
[2], 322.08 K	–	0.0001485 kPa and 0.0001484 kPa and 0.0001469 kPa
[2], 324.2 K	–	0.0001813 kPa and 0.0001821 kPa and 0.0001901 kPa
[2], 326.15 K	–	0.0002346 kPa and 0.0002296 kPa and 0.0002407 kPa
[2], 328.08 K	–	0.0002879 kPa and 0.0002891 kPa and 0.0002869 kPa
[2], 330.18 K	–	0.0003569 kPa and 0.0003533 kPa and 0.0003704 kPa
[2], 332.12 K	–	0.0004537 kPa and 0.0004424 kPa and 0.0004677 kPa
[2], 334.07 K	–	0.0005566 kPa and 0.0005557 kPa and 0.0005502 kPa
[2], 336.18 K	–	0.0006862 kPa and 0.0006759 kPa and 0.0007079 kPa
[2], 338.15 K	–	0.000897 kPa and 0.0008658 kPa and 0.0008434 kPa
[2], 340.08 K	–	0.001048 kPa and 0.001057 kPa and 0.001058 kPa

— the NIST ThermoML archive (doi:10.1016/j.jct.2019.01.014)
